Reference: patent publication US5580852A, “Derivatives of tachyplesin having inhibitory activity towards plant pathogenic fungi” (Pioneer Hi-Bred International, Inc., priority 1993, dated 1996)

What was measured:
Assay type in all cases: cell-based
Aspergillus flavus = test: Antifungal testing, MIC and MCIC; details: comparison table
Fusarium moniliforme = test: Antifungal testing, MIC and MCIC; details: comparison table
E. coli = details: bacterial host; statement in words

| Substance | MIC AFL (Aspergillus flavus; known antimicrobial compounds) | MIC AFL (Aspergillus flavus; value in parentheses) | MIC FMO (Fusarium moniliforme; known antimicrobial compounds) | MIC FMO (Fusarium moniliforme; value in parentheses) | toxicity to E. coli (E. coli) |
| --- | --- | --- | --- | --- | --- |
| CMIII | 60 µg/mL | 15 µM | 18.2 µg/mL | 4.6 µM | – |
| KWCFRVCYRGICYRRCR [tachyplesin, natural tachyplesin, small peptide originally isolated from the hemocytes of the horseshoe crab, Tachypleus tridentatus] | 6.25 µg/mL | 2.8 µM | 6.25 µg/mL | 2.8 µM | significant toxicity |
| hordothionin | 15 µg/mL | 3 µM | 45 µg/mL | 9 µM | – |
